Reference: article PMC3025356, “Mechanism of the Ca^2+-Dependent Interaction between S100A4 and Tail Fragments of Nonmuscle Myosin Heavy Chain IIA” (Journal of Molecular Biology, 2011)
Read-outs that look alike come from different tables or passages of the source.

How the values were obtained:
[1] = Stopped-flow Quin-2 fluorescence, Ca^2+ dissociation from / binding to S100A4 constructs (no target)
From the text: In order to increase the signal-to-noise ratio of the Ca^2+ dissociation transients, we used Quin-2 as combined fluorescent indicator and high-affinity chelator.[19,20] These measurements confirmed that Ca^2+ dissociated from wild-type protein with a rate constant of 16 s^− 1 (Fig. 3a; cf. 20 s^− 1 for the tyrosine signal). Given the poor signal-to-noise ratio of the tyrosine signal, the difference is barely significant but may reflect the fact that the Quin-2 signal represents at least a two-step sequential reaction (Ca^2+ dissociation from S100AS4, followed by rapid binding to Quin-2).
Fig. 3 (a) Dissociation of Ca^2+ from wild-type S100A4 (black), E33Q mutant (blue), and D63N mutant (red), as monitored by Quin-2 fluorescence. […] The records for the mutants were vertically offset for clarity. (b) Ca^2+ binding to S100A4 as determined from the amplitude of the resolved transient (k ≈ 20 s^− 1) when 6.5 μM S100A4 was preincubated with various added [Ca^2+] and then mixed with 100 μM Quin-2. The amplitude was converted into a bound concentration from an independent calibration using the same Quin-2 solution and known free [Ca^2+]. […] While either model could account for the data, the measured stoichiometry from ITC (Table 1) favors the cooperative model.
Stopped-flow measurements were carried out using an SX18-MV apparatus (Applied Photophysics Ltd., Leatherhead, UK) with a dead time of 1.5 ms.[40] Records were generally captured on a logarithmic time base. Absorption (turbidity) measurements were usually recorded using a 10-mm pathlength, while fluorescence was recorded with a 2-mm pathlength for excitation and emission. The stated concentrations of components refer to the reaction chamber after mixing, unless otherwise indicated. Tyrosine fluorescence was excited at 280 nm, and the emission was collected through a UG11 bandpass filter plus a 305-nm longpass filter.[18] Fluorescein fluorescence was excited at 480 nm, and the emission was detected through a 515-nm longpass filter. Quin-2 fluorescence was measured by excitation at 336 nm, and emission was collected with a 455-nm longpass filter. For simultaneous recording of light scatter, a second channel was monitored through a UG11 filter. Rate constants were obtained by fitting to single-exponential or double-exponential functions using Kaleidagraph (Synergy Software) or Applied Photophysics Pro-Data software. Modeling of kinetic schemes was performed using Berkeley Madonna software.

[2] = system: M200 filamentous bundles; test: Electron microscopy of myosin IIA tail fragments; parameters: species or system human; settings: two times stoichiometric S100A4, Ca^2+, 0.1 M Na-acetate
Procedure: Fig. 8 Characterisation of myosin IIA coiled-coil tail fragments. Metal-shadowed electron micrographs of (a) M200 and (b) M111 deposited from 0.5 M ammonium acetate. Scale bar represents 50 nm. (c and d) Electron micrographs of a negatively stained M200 tail fragment. Fields of M200 (c) in the absence and (d) in the presence of a 2-fold molar excess of S100A4, respectively. Arrows point to individual strands emerging from images of filamentous bundles. The samples were prepared in 0.1 M sodium acetate buffer, where M200 formed large filamentous aggregates but were solubilised in the presence of S100A4. Scale bar represents 200 nm (see Materials and Methods for details).
For negative staining, the stock solution of the M200 tail fragment was diluted with a solution consisting of 0.1 M Na-acetate, 3 mM MgCl2, 0.1 mM CaCl2, 10 mM imidazole, and 5 mM NaH2PO4 (pH 7.0), with or without 14 μM S100A4, to give a final concentration of 7 μM M200. Following dilution, 5 μl of the mixture was applied to a grid with a thin carbon film supported by a holey carbon film, and the grid was negatively stained using 1% uranyl acetate. […] Images were recorded on a 2000 × 2000 F224HD slow-scan CCD camera (TVIPS, Gauting, Germany) at a magnification of 65,000× (0.37 nm pixel^− 1). The lengths of nonoverlapping well-shadowed molecules were measured as described by Burgess et al.[47]

[3] = system: M200 filaments; settings: cited from earlier work
From the text: Over the last two decades, there has been much interest in the role of the S100 Ca^2^+-binding protein family in the regulation of cellular events.[1,2] Identifying the specific targets of each of the 24 members[3] and deducing their mechanisms of action in vitro and in vivo remain to be a challenge. This is exemplified by S100A4 (also known as Mts1, metastasin, p9Ka, pEL98, calvasculin, and Fsp-1), which has been implicated in a wide range of cellular events and numerous diseases and binds to several different targets in vitro.[4–6] In particular, following early work,[7–9] there have been ma ... || A corresponding stoichiometry is also seen in the interaction of S100A4 with M200, where 2 mol of S100A4 monomer was required to solubilise 1 mol of M200 aggregate (when expressed as M200 polypeptide chain concentration) (Fig. 9b). […] These stoichiometries complicate the calculation of the equilibrium parameters for the models described in Schemes 1 and 2. If the binding sites remaine ...

## S100A4: recombinant S100A4 expressed in E. coli BL21(DE3)
[1]; 10 μM S100A4 + 50 μM Ca^2+ mixed with 100 μM Quin-2, pH 7.5, 20 °C
  kobs, Ca^2+ dissociation, no target (k− 1): 17 s^− 1
[1]; model for Fig. 3b data, read-out: Kd, EF2 site (alternative model)
  Kd: 5 µM
[1]; model for Fig. 3b data, read-out: Kd, first Ca^2+ at EF2 of dimer (cooperative model)
  Kd: 100 µM
[1]; model for Fig. 3b data, read-out: Kd, second Ca^2+ at EF2 of dimer (cooperative model)
  Kd: 1.7 µM
[1]; no added Ca^2+, excess Quin-2
  amplitude without added Ca^2+: 0.1 mol of Ca^2+ per mole of S100A4 monomer
  rate constant without added Ca^2+: around 1 s^− 1
[1]; optically silent EF1 model for Fig. 3b data, read-out: Kd, EF1 site (alternative model)
  Kd: 0.25 µM
[1]; resolved signal, 6.5 μM S100A4, 100 μM Quin-2
  Ca^2+ bound per monomer from calibrated Quin-2 amplitude: one Ca^2+ bound per S100A4 monomer
[1]; single exponential fit, no target
  Ca^2+ dissociation rate constant (Quin-2): 16 s^− 1
[1]; some preparations
  rate constant of second slow phase of Ca^2+ dissociation: 0.4–4 s^− 1
[2]
  M200 filamentous bundles after S100A4 addition: no trace of filamentous bundles was observed
[3]; 20 mM NaCl
  dissociation of rod filaments: ineffective at dissociating rod filaments
[3]; ref 11 (Li et al.)
  S100A4 dimer required to disassemble 1 mol of NM-MHC IIA rods: 1 mol of S100A4 dimer
